{
  "source": "paper PMC8400343",
  "about": "“Synthesis and Evaluation of the Antidepressant-like Properties of HBK-10, a Novel 2-Methoxyphenylpiperazine Derivative Targeting the 5-HT1A and D2 Receptors” (Pharmaceuticals, 2021)",
  "key": {"[1]": {"experiment": "Metabolic stability in mouse liver microsomes (MLMs)", "assay_type": "in vitro ADME", "method": "Next, the target compound was incubated with mouse liver microsomes in the presence of an NADPH regenerating system. In the initial screening phase, the percentage of the parent compound recovered after 30 min of incubation was calculated (Table 2). […] The assay was performed with mouse liver microsomes from male CD-1. […] Metabolic reactions were initiated by the addition of the NADPH regenerating system, containing NADP, glucose-6-phosphate, and glucose-6-phosphate dehydrogenase. […] Enzymatic reactions were quenched by perchloric acid followed by addition of internal standard (pentoxifylline). Negative controls were performed without NADPH-regenerating system. After centrifugation, samples were analyzed by LC/MS (UPLC/MS, Waters Corporation, Milford, MA, USA). In vitro half time (t1/2) and intrinsic clearance (Clint) of test compound in liver microsomes were determined according to literature procedures."}, "[2]": {"system": "corticosterone-treated mice", "experiment": "Forced swim test in corticosterone-induced mouse model of depression", "assay_type": "in vivo", "conditions": "for Decrease of immobility in the forced swim test in corticosterone-treated mice: chronic (3 weeks)", "method": "The experiment was performed on mice according to the method described by Porsolt et al. and as previously described. Mice were placed individually in glass cylinders (height 25 cm, diameter 10 cm) filled with water at 24 ± 1 °C to a depth of 10 cm and left there for 6 min. Following a 2 min habituation period, total time spent immobile was recorded during the next 4 min. The animal was considered as immobile when it remained floating passively in the water, making only small movements to keep its head above the water. The experiments were video-recorded and scored using elevenmaze.com software by a trained observer blind to the treatments.\nMice were injected with corticosterone (sc, 20 mg/kg) at random times during the light phase for 21 days. The dose and route of administration of corticosterone were based on our previous study. Control mice received saline containing 0.1% dimethyl sulfoxide (DMSO) and 0.1% Tween (sc). For the next 21 days, 30 min before the corticosterone injection, mice were injected with saline, HBK-10 (0.625 or 1.25 mg/kg), or fluoxetine (15 mg/kg) (ip). Twenty-four hours after the last injection, animals were tested in the forced swim test and locomotor activity test (Figure 8)."}, "[3]": {"experiment": "Rotarod test in mice", "assay_type": "in vivo, mouse", "conditions": "mouse, in vivo; ip, log-probit method", "method": "This experimental procedure was described in detail in our earlier studies. Briefly, mice were trained on the rotarod apparatus (May Commat RR0711, Turkey; rod diameter: 2 cm) every day for 3 consecutive days. During each training session, mice were placed for 3 min on the rotating rod (24 rpm, constant speed) with an unlimited number of trials. The experiment was performed 24 h after the last training session. On the test day, mice were injected with HBK-10, and 30 min after the administration tested on the rotarod (24 rpm, constant speed). Motor impairment was regarded as the inability to remain on the rotating rod for 60 s and was expressed as the % of animals that fell off the rotating rod."}, "[4]": {"experiment": "MTT viability assay in HepG2 cells", "assay_type": "cell-based", "conditions": "human, % of control, read-out: Viability (% ± SEM)", "method": "To investigate the lack of hepatotoxicity of HBK-10 at 25 µM concentration, we used HepG2 cells. Viability was measured using 3-(4,5-dimethyl-thiazol-2-yl)-2,5-diphenyltetrazolium (MTT) assay. We chose 25 µM since such concentration was used in metabolic stability studies.\nTo investigate the preliminary hepatic safety of HBK-10 at the concentration used in metabolic stability study, a human hepatocellular carcinoma cell line—HepG2 (HB-8065TM, ATCC, Manassas, VA, USA) was used in the study. HepG2 cells were cultured in standard conditions (37 °C, 5% CO2, 95% humidity) in appropriate culture medium (according to manufacturer procedure), supplemented with 10% fetal bovine serum (FBS, Gibco, Thermo Fisher Scientific, Waltham, MA, USA) and antibiotics (1% streptomycin/penicillin mixture; Sigma-Aldrich, Steinheim, Germany). Cells were seeded in 96-well plates at density of 1 × 10^4 per well. After 24 h cells were treated with two doses of HBK-10 (5 and 25 µM, solvent—PBS) and incubated for additional 24 h. Following the incubation cells viability was measured with MTT assay. For this purpose, MTT reagent (3-(4,5-dimethylthiazol-2-yl)-2,5-diphenyltetrazolium bromide) (Sigma Aldrich, Steinheim, Germany) was added to each well at the concentration 0.5 mg/mL. After 4 h incubation at 37 °C, the medium was aspirated, and formazan crystals produced in the cells were dissolved in DMSO. Then the absorbance of solution was determined at 570 nm (A570) on plate reader (Spectra iD3 Max, Molecular Devices; San Jose, CA, USA). Viability (% of control) was determined by dividing A570 of experimental wells by of A570 of control wells × 100%."}, "[5]": {"system": "mice", "experiment": "Tail suspension test in mice", "assay_type": "in vivo, mouse", "conditions": "30 min before test", "method": "Adult male Albino-Swiss mice (CD-1, 8 weeks old, 18–21g: Jagiellonian University Medical College, Krakow, Poland) were used in all experiments. Unless stated otherwise, the animals were kept in groups of 10 mice in standard cages (37 cm × 21 cm × 15 cm) at a room temperature (22 ± 2 °C), on a 12 h light/dark cycle (lights on 7:00) with ad libitum access to food and water. Mice were used only once in each test. Behavioral experiments were performed between 8 am and 4 pm and evaluated by a trained observer blind to the treatments. Mice were handled for 1 week before starting the experimental procedures. Animals were randomly allocated to the treatment using a computer-generated sequence, and researchers making measurements on the animals or analyzing the results were blind to the allocation. Moreover, experimental groups were distributed across multiple cages, and the location of the mouse cages in the room was changed following each day. […]\nThe experiment was carried out in mice according to the method described by Steru et al. and as previously described. […] The total time of immobility was measured during the 6-min test period. […] The experiments were video-recorded and scored using elevenmaze.com software by a trained observer blind to the treatments."}},
  "data": [
    {"molecule": "CCC(CN1CCN(c2ccccc2OC)CC1)NCCCOc1c(C)cccc1C.Cl.Cl", "note": "(stereo not drawn) [HBK-10, N-(3-(2,6-dimethylphenoxy)propyl)-1-(4-(2-methoxyphenyl)piperazin-1-yl)butan-2-amine dihydrochloride]", "values": [
      {"measurement": "Recovery percent of parent compound after 30 min, fold higher than buspirone", "setting": "[1]", "result": "more than 100 fold"},
      {"measurement": "half-life at 20 µM", "setting": "[1]; male, CD-1, mouse, liver microsomes, pH 7.4, protein concentration 0.8", "result": 25, "unit": "min"},
      {"measurement": "remaining at 0.5 h, 20 µM", "setting": "[1]; male, CD-1, mouse, liver microsomes, pH 7.4, protein concentration 0.8, NADPH regenerating system, read-out: % Remaining after 30 min", "result": 36, "unit": "%"},
      {"measurement": "microsomal CLint at 20 µM", "setting": "[1]; male, CD-1, mouse, liver microsomes, pH 7.4, protein concentration 0.8, read-out: Intrinsic Clearance (Clint)", "result": 34.6, "unit": "µL/min/mg"},
      {"measurement": "Decrease of immobility in the forced swim test in corticosterone-treated mice", "setting": "[2]; 0.625 mg/kg ip", "result": 30.9, "unit": "%"},
      {"measurement": "Decrease of immobility in the forced swim test in corticosterone-treated mice", "setting": "[2]; 1.25 mg/kg ip", "result": 39.5, "unit": "%"},
      {"measurement": "Active dose in corticosterone model, fold lower than fluoxetine", "setting": "[2]; chronic administration", "result": 24, "unit": "fold"},
      {"measurement": "Active dose in corticosterone model, fold lower than HBK-15", "setting": "[2]; comparator data ref 21", "result": 2, "unit": "fold"},
      {"measurement": "TD50 at 30 min", "setting": "[3]", "result": 44.3, "unit": "mg/kg"},
      {"measurement": "viability at 24 h, 1 µM", "setting": "[4]; HBK-10 1 μM", "result": "102 ± 3.3", "unit": "%"},
      {"measurement": "viability at 24 h, 5 µM", "setting": "[4]; HBK-10 5 μM", "result": "109 ± 0.9", "unit": "%"},
      {"measurement": "viability at 24 h, 25 µM", "setting": "[4]; HBK-10 25 μM", "result": "99 ± 2.4", "unit": "%"},
      {"measurement": "melting point", "result": "224 to 226", "unit": "°C"},
      {"measurement": "Reduction of immobility in the tail suspension test", "setting": "[5]; 5 mg/kg ip", "result": 54.5, "unit": "%"},
      {"measurement": "Reduction of immobility in the tail suspension test", "setting": "[5]; 10 mg/kg ip", "result": 42, "unit": "%"}
    ]}
  ]
}
